The results in this text go back to US20250325684A1, “POTENT ANTI-CANCER CYCLOTIDES” (University of Southern California, priority 2022, published 2025).

Data set [1] has as its system p53, FOXO3a, RUNX3, ATF3, DYRK2 and HIPK2 in HCT116 cell lines. Description: Stabilization of Hdm2/HdmX E3 ligase substrates in HCT116 cell lines. Type of data set: cell-based, human. The conditions noted are these: HCT116 cell lines with p53-wt and -null phenotype; listed as MCo-52-2-cTAT. The method, then:
Stabilization of p53 could be observed just 8 h after treating the cells with the bioactive cyclotide (FIG. 5B), likely indicating the cyclotide crosses the cellular membrane into the cytosol through an endocytic mechanism as previously described for this type of microproteins (30, 31). […] These transcription factors (ATF3, FOXO3a and RUNX3) and kinases (DYRK2 and HIPK2) have been described to be regulated by the E3 ligase activity of Hdm2/HdmX (6). […] In both cases the peptide was able to inhibit tumor growth by 60% (HCT116-nude mice) and 80% (CT26-Balb/c mice) (FIG. 7).

Data set [2] in a line: Toxicity observation in tumor-bearing mice. Type of data set: in vivo, mouse. To be noted: dosed up to 40 mg/kg three times per week. The method, then: Tumor samples were also subjected to SDS-PAGE and analyzed by western blotting for p53, Hdm2, and p21. GAPDH was used as loading control in western blots.
Mice xenografts studies. HCT116 p53^−/− and CT26 xenografts were established by injecting 100 uL suspension of basal RPMI containing 0.5×10^6 cells into the rear right flanks of female nude mice (nu/nu) mice (HCT116) or Balb/C (CT26). […] Compounds were prepared in a D5W at a final volume of 50 μL (peptide) or 100 μL (Nutlin-3). Health checks were performed daily to observe parameters such as body conditioning score, overall appearance and cleanliness, strength of grip, skin color and tone, mobility, gait and activity level as indicators of potential drug related toxicities. Individual weights were recorded thrice weekly, comparing the control and treatment groups as an additional indicator of tolerance of drug treatment as well as providing the average weight for calculation of drug dosing. Tumor size was measured with calipers. Tumor volume was calculated by measuring tumor size in two dimensions and applying those measurements to the calculation V=d^2×D/2, where d and D equal to the smaller and larger of the two measurements, respectively. Mice bearing tumors larger than 2.4 cm^3 were removed from the study, sacrificed and necropsies performed to gather tumor and organ samples for histological analysis. […]

Entries after “also recorded” stand apart in the source; their conditions may differ. Numbered stars: 1 amine (or outer) side, 2 acyl side, 3 side chain; on linkers, the order of the positions; unused ones are H or OH. Bridge positions count the residues as written; N and C are the ends. Square brackets hold non-standard residues; d marks the D form. I, II: the chains in the order shown. X1 = O=C(CCc1cn(CCOCCOCCOCCC(=O)[*:2])nn1)[*:1]; isoGln = NC(=O)[C@H](CCC(=O)[*:2])N[*:1]

On to “I: cyclo(ACICRHDSYCGSGSDGGVCPNLYLLCRRDKDCPG) / II: KK[dR]R[dR]G[dR]K[dK]R[dR][isoGln] (disulfide I:2-I:19, I:4-I:26, I:10-I:32; linker I:30-II:N via X1; lactam II:1-II:C) [Cyclotide 52-2-cTAT]”, for which the “Stabilization of transcription factors and kinases” value in data set [1] was “stabilize ATF3, FOXO3a, RUNX3, DYRK2 and HIPK2; also recorded: stabilizes transcription factors p53, FOXO3a, RUNX3, ATF3, and kinases DYRK2 and HIPK2”. In data set [2], the Toxic effects result was “No toxic effects were detected”.
